Consider 19 compounds from ChEMBL document CHEMBL4387751, “Development of substituted pyrido[3,2-d]pyrimidines as potent and selective dihydrofolate reductase inhibitors for pneumocystis pneumonia infection” (Bioorg Med Chem Lett, 2019).

Usually IC50 stands for the concentration needed to halve the response being measured.

A short description of series [1]: Inhibition of Pneumocystis jirovecii DHFR expressed in Escherichia coli Rosetta-gami B (DE3) assessed as reduction in consumption of NADPH using 18 uM DHFA as substrate.
Series [2] deals with DHFR (human versus Pneumocystis jirovecii). The experiment in a line: Selectivity ratio of IC50 for inhibition of recombinant human DHFR using 18 uM DHFA as substrate to IC50 for inhibition of Pneumocystis jirovecii DHFR using 18 uM DHFA as substrate. The format is toxicity. The following applies: recombinant human DHFR and Pneumocystis jirovecii DHFR, probe DHFA (substrate), read-out: Ratio IC50.

A short description of series [3]: Inhibition of Pneumocystis jirovecii DHFR expressed in Escherichia coli Rosetta-gami B (DE3) assessed as reduction in consumption of NADPH using 9 uM DHFA as substrate.
The target of series [4] is T1, Dihydrofolate reductase (Homo sapiens, UniProt P00374).
T1 sequence (P00374 whole entry): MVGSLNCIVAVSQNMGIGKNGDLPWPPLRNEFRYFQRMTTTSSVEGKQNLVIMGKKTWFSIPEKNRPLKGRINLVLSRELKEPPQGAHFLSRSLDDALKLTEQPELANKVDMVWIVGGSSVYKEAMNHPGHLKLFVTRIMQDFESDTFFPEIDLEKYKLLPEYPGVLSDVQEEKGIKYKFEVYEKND
Nature of the series: Inhibition of recombinant human DHFR assessed as reduction in consumption of NADPH using 9 uM DHFA as substrate.

In series [5] the test system is DHFR (human versus Pneumocystis jirovecii). Nature of the series: Selectivity ratio of IC50 for inhibition of recombinant human DHFR using 9 uM DHFA as substrate to IC50 for inhibition of Pneumocystis jirovecii DHFR using 9 uM DHFA as substrate. The format is toxicity. The following applies: recombinant human DHFR and Pneumocystis jirovecii DHFR, probe DHFA (substrate), read-out: Ratio IC50.

A short description of series [6]: Inhibition of Pneumocystis carinii DHFR expressed in Escherichia coli Rosetta-gami B (DE3) assessed as reduction in consumption of NADPH using DHFA as substrate.
Series [7] concerns the target T2, Dihydrofolate reductase (Rattus norvegicus, UniProt Q920D2).
T2 sequence (Q920D2 whole entry): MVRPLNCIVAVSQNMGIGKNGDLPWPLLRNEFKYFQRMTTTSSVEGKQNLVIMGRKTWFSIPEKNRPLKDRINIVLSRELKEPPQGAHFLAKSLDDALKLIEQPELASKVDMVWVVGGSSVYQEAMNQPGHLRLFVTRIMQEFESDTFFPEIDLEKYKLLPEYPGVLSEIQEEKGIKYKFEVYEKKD
Nature of the series: Inhibition of rat liver DHFR assessed as reduction in consumption of NADPH using DHFA as substrate.

In the case of `Nc1nc(N)c2cc(Nc3ccccc3)cnc2n1`, in series [1], the IC50 came out at 0.3 µM. Moreover, the selectivity ratio in series [2] is less than 1.
Taken in the same sequence, the figures for `Nc1nc(N)c2cc(Nc3cc(F)c(F)c(F)c3)cnc2n1` were 0.87 µM and 4.
As to `Nc1nc(N)c2nc(Nc3cccc4ccccc34)ccc2n1`, the IC50 amounted to 0.112 µM in series [3] and 1.1 µM at Dihydrofolate reductase [4]. The selectivity ratio in series [5] amounted to 10.
On to `Nc1nc(N)c2nc(Nc3cc(F)c(F)c(F)c3)ccc2n1`, for which, in series [3], the IC50 stood at 0.155 µM. Moreover, in series [5], the selectivity ratio was 12.
As to `Nc1nc(N)c2nc(Nc3ccc(O)cc3)ccc2n1`, the IC50 in series [3] was 0.15 µM; at Dihydrofolate reductase [4], 1.58 µM. Moreover, in series [5], the selectivity ratio turned out to be 10.
For `COc1ccc(Nc2cnc3nc(N)nc(N)c3c2)cc1`, the IC50 in series [1] stood at 0.4 µM.
On to `CCCCN(c1ccccc1)c1ccc2nc(N)nc(N)c2n1`, for which the IC50 in series [3] was found to be 0.066 µM.
`Nc1nc(N)c2nc(Nc3ccc(F)c(F)c3)ccc2n1`: the IC50 in series [3] turned out to be 0.08 µM; at Dihydrofolate reductase [4] it was 2.25 µM. Moreover, the selectivity ratio in series [5] was 28.
For `Nc1nc(N)c2nc(Nc3ccccc3)ccc2n1`, the half-inhibitory concentration (IC50) was determined as 0.122 µM in series [3] and 1.53 µM on Dihydrofolate reductase [4]. For the same compound, in series [5], the selectivity ratio turned out to be 13.
Consider `COc1ccc(Nc2ccc3nc(N)nc(N)c3n2)cc1`, for which the half-inhibitory concentration (IC50) in series [3] worked out at 0.239 µM; on Dihydrofolate reductase [4], 2.46 µM.
`Cc1ccc(Nc2ccc3nc(N)nc(N)c3n2)cc1`: the values for the concentration for half-maximal inhibition (IC50) (in series [3]; on Dihydrofolate reductase [4]) were 0.174 µM and 2.63 µM, respectively. The selectivity ratio in series [5] amounted to 15.
As for `COc1ccc(OC)c(NCc2ccc3nc(N)nc(N)c3n2)c1`, in series [6], the half-maximal inhibitory concentration (IC50) came to 1.4 µM.
Regarding `COc1cc(NCc2ccc3nc(N)nc(N)c3c2C)cc(OC)c1OC` [TRIMETREXATE], the 50% inhibitory concentration (IC50) in series [1] worked out at 0.0021 µM.
Turning to `Nc1nc(N)c2nc(Nc3ccc4ccccc4c3)ccc2n1`, the IC50 in series [3] is 0.275 µM; at Dihydrofolate reductase [4], 3.18 µM. For the same compound, the selectivity ratio in series [5] was determined as 12.
Consider `Nc1nc(N)c2cc(Nc3ccc4ccccc4c3)cnc2n1`, for which the half-maximal inhibitory concentration (IC50) in series [1] was 0.4 µM. Further, the selectivity ratio in series [2] was found to be 5.
With `CCN(c1ccccc1)c1ccc2nc(N)nc(N)c2n1`, the IC50 in series [3] amounted to 0.15 µM.
With `COc1ccc(OC)c(NCc2cnc3nc(N)nc(N)c3c2)c1`, the IC50 on Dihydrofolate reductase [7] worked out at 0.5 µM.
Turning to `Nc1nc(N)c2cc(Nc3cccc4ccccc34)cnc2n1`, in series [1], the IC50 was 0.25 µM. Besides, the selectivity ratio in series [2] came to 8.
For `Cc1ccc(Nc2cnc3nc(N)nc(N)c3c2)cc1` the same measures were 0.62 µM and 3.
